# Measurements from US6605427B2, “Assay for detection of viral fusion inhibitors” (priority 2000, dated 2003).
# Read-outs that look alike come from different tables or passages of the source.
# Biological target: HIV-1 gp41 core structure (six-helix bundle) formation (Human immunodeficiency virus type 1 group M subtype B, UniProt P04578)
# Method: Two days following transfection, intact 293T cells transiently expressing the HIV-1 HXB2 envelope are incubated in the presence of the test compound. At the end of 1 h, 2 μg of soluble CD4 (sCD4) or a cell line expressing CD4 is added. At the end of an additional 1 h, the monoclonal antibody against the six-helix bundle structure is added at a concentration of 10 μg/ml and the mixture is allowed to incubate at 25° C. for 3 hr. Following this incubation the cells are washed 4 times with PBS and lysed with 1 ml lysis buffer (1% Triton X-100, 150 mM NaCl, and 50 mM Tris-Cl pH 7.4). […] Immunoprecipitated complexes are analyzed by 10% SDS-Page gel, transferred to nitrocellulose and immunoblotted with the anti-gp41 monoclonal antibody Chessie 8 (obtained from NIH AIDS Research and Reference Reagent Program) and detected by chemiluminescence and autoradiography.
# The ability of the test compound to disrupt these critical conformational changes is assessed by characterizing the formation of the gp41 core structure. […]
# The assay is a modified form of an immunoprecipitation (IP) assay and involves incubating the test compound with intact, virus-infected cells expressing the gp120/gp41 envelope complex on their surface. […] In these experiments the ability of a test compound to disrupt gp41 conformational changes was measured by determining its effect of core structure formation.
smiles,measurement,setting,value
"C=C(C)[C@@H]1CC[C@]2(C(=O)O)CC[C@]3(C)[C@H](CC[C@@H]4[C@@]5(C)CC[C@H](OC(=O)CC(C)(C)C(=O)O)C(C)(C)[C@@H]5CC[C@]43C)[C@@H]12 [DSB, dimethylsuccinylbetulinic acid]",amount of gp41 immunoprecipitated following sCD4 triggering,100 μg/ml DSB (FIG. 8 lane 3),further reduced to a level nearly identical to that recovered in the absence of CD4 triggering
same,amount of gp41 immunoprecipitated following sCD4 triggering,10 Mg/ml DSB (FIG. 8 lane 2) versus no test compound (lane 1),significantly greater than the amount of gp41 immunoprecipitated in the presence of 10 Mg/ml DSB
